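In this assay, cells in 96-well plates receive the compound at five concentrations for 48 hours. Endpoints are linearly interpolated between the surrounding concentrations. GI50 = concentration required for 50% inhibition of growth.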 Activity calls are given as the source filed them. Rule as the data show it: active = GI50 up to about 1.1 µM and inactive = higher.
Columns and labels:
Assay in all cases: NCI anticancer screen, dose series, 48 h
[1] = system: SK-MEL-28
[2] = system: UACC-62
[3] = system: SK-MEL-2
[4] = system: SF-295
[5] = system: MOLT-4
[6] = system: SK-MEL-5
[7] = system: SF-539
[8] = system: KM12
[9] = system: HOP-18
[10] = system: CAKI-1
[11] = system: HT-29
[12] = system: NCI-H226
[13] = system: LOX IMVI
[14] = system: RXF 393
[15] = system: SF-268
[16] = system: HCT-116
[17] = system: OVCAR-3
[18] = system: SNB-19
[19] = system: HL-60
[20] = system: UACC-257
[21] = system: Malme-3M
[22] = system: M19-MEL
[23] = system: XF498
[24] = system: MCF7
[25] = system: NCI-H522
[26] = system: K562
[27] = system: HCT-15
[28] = system: U-251
[29] = system: SW-620
[30] = system: OVCAR-8
[31] = system: RPMI-8226
[32] = system: NCI/ADR-RES
[33] = system: SNB-75
[34] = system: A549
[35] = system: SNB-78
[36] = system: NCI-H460
[37] = system: HOP-92
[38] = system: UO-31
[39] = system: OVCAR-4
[40] = system: OVCAR-5
[41] = system: HOP-62
[42] = system: SN12C
[43] = system: EKVX
[44] = system: CCRF-CEM
[45] = system: A498
[46] = system: DLD-1
[47] = system: HCC 2998
[48] = system: SK-OV-3
[49] = system: IGROV-1
[50] = system: DMS-273
[51] = system: KM-20L2
[52] = system: DMS-114
[53] = system: COLO 205
[54] = system: NCI-H23
[55] = system: ACHN
[56] = system: SR
[57] = system: TK-10
[58] = system: 786-0
[59] = system: M14
[60] = system: LXFL 529
[61] = system: PC-3
[62] = system: MDA-N

N#C[C@H](OC1OC(COC2OC(CO)C(O)C(O)C2O)C(O)C(O)C1O)c1ccccc1 (some centres not stated)
GI50 [1]: > 250 µM (inactive)
GI50 [2]: 247 µM (inactive)
GI50 [3]: > 250 µM (inactive)
GI50 [4]: 203 µM (inactive)
GI50 [5]: 158 µM (inactive)
GI50 [6]: > 250 µM (inactive)
GI50 [7]: > 214 µM (inactive)
GI50 [8]: > 250 µM (inactive)
GI50 [9]: > 250 µM (inactive)
GI50 [10]: > 250 µM (inactive)
GI50 [11]: > 250 µM (inactive)
GI50 [12]: 191 µM (inactive)
GI50 [13]: > 195 µM (inactive)
GI50 [14]: > 250 µM (inactive)
GI50 [15]: > 250 µM (inactive)
GI50 [16]: > 250 µM (inactive)
GI50 [17]: > 250 µM (inactive)
GI50 [18]: > 250 µM (inactive)
GI50 [19]: 158 µM (inactive)
GI50 [20]: 234 µM (inactive)
GI50 [21]: > 250 µM (inactive)
GI50 [22]: > 250 µM (inactive)
GI50 [23]: 23.4 µM (inactive)
GI50 [24]: > 250 µM (inactive)
GI50 [25]: > 200 µM (inactive)
GI50 [26]: > 250 µM (inactive)
GI50 [27]: > 250 µM
GI50 [28]: > 250 µM (inactive)
GI50 [29]: > 250 µM (inactive)
GI50 [30]: > 250 µM (inactive)
GI50 [31]: > 250 µM (inactive)
GI50 [32]: > 250 µM (inactive)
GI50 [33]: > 250 µM (inactive)
GI50 [34]: > 250 µM (inactive)
GI50 [35]: 228 µM (inactive)
GI50 [36]: > 250 µM (inactive)
GI50 [37]: 2.5 µM (inactive)
GI50 [38]: > 250 µM (inactive)
GI50 [39]: > 250 µM (inactive)
GI50 [40]: > 250 µM (inactive)
GI50 [41]: > 250 µM (inactive)
GI50 [42]: > 250 µM (inactive)
GI50 [43]: > 250 µM (inactive)
GI50 [44]: > 250 µM (inactive)
GI50 [45]: > 11.6 µM (inactive)
GI50 [46]: > 250 µM (inactive)
GI50 [47]: > 250 µM (inactive)
GI50 [48]: > 250 µM (inactive)
GI50 [49]: > 250 µM (inactive)
GI50 [50]: > 250 µM (inactive)
GI50 [51]: > 250 µM (inactive)
GI50 [52]: > 250 µM (inactive)
GI50 [53]: > 250 µM (inactive)
GI50 [54]: > 250 µM (inactive)

O=C(CSc1nnc(-c2ccc(/N=C\c3ccc(Cl)cc3)cc2)o1)Nc1ccc(Cl)cc1
GI50 [1]: > 100 µM (inactive)
GI50 [2]: > 100 µM (inactive)
GI50 [3]: > 100 µM (inactive)
GI50 [4]: > 100 µM (inactive)
GI50 [5]: > 100 µM (inactive)
GI50 [6]: > 100 µM (inactive)
GI50 [55]: > 100 µM (inactive)
GI50 [8]: > 100 µM (inactive)
GI50 [9]: > 100 µM (inactive)
GI50 [56]: > 100 µM (inactive)
GI50 [11]: > 100 µM (inactive)
GI50 [12]: > 100 µM (inactive)
GI50 [13]: > 100 µM (inactive)
GI50 [14]: > 100 µM (inactive)
GI50 [15]: > 100 µM (inactive)
GI50 [16]: > 100 µM (inactive)
GI50 [18]: > 100 µM (inactive)
GI50 [19]: > 100 µM (inactive)
GI50 [20]: > 100 µM (inactive)
GI50 [21]: > 100 µM (inactive)
GI50 [22]: > 100 µM (inactive)
GI50 [23]: > 100 µM (inactive)
GI50 [57]: > 100 µM (inactive)
GI50 [58]: > 100 µM (inactive)
GI50 [25]: > 100 µM (inactive)
GI50 [26]: > 100 µM (inactive)
GI50 [27]: > 100 µM
GI50 [28]: > 100 µM (inactive)
GI50 [29]: > 100 µM (inactive)
GI50 [30]: > 100 µM (inactive)
GI50 [31]: 41.7 µM (inactive)
GI50 [33]: > 100 µM (inactive)
GI50 [34]: > 100 µM (inactive)
GI50 [35]: > 100 µM (inactive)
GI50 [36]: > 100 µM (inactive)
GI50 [38]: > 100 µM (inactive)
GI50 [39]: > 100 µM (inactive)
GI50 [41]: > 100 µM (inactive)
GI50 [42]: > 100 µM (inactive)
GI50 [43]: > 100 µM (inactive)
GI50 [44]: > 100 µM (inactive)
GI50 [48]: > 100 µM (inactive)
GI50 [59]: > 100 µM (inactive)
GI50 [50]: > 100 µM (inactive)
GI50 [51]: > 100 µM (inactive)
GI50 [52]: > 100 µM (inactive)
GI50 [53]: > 100 µM (inactive)
GI50 [54]: > 100 µM (inactive)
GI50 [60]: > 100 µM (inactive)

CC1=C2C(=CC(C)(C)[C@@H]2O)C(=O)[C@](C)(O)C12CC2 [ILLUDIN M]
GI50 [1]: < 0.0209 µM (active)
GI50 [2]: 0.0208 µM (active)
GI50 [3]: 0.0134 µM (active)
GI50 [4]: < 0.018 µM (active)
GI50 [5]: 0.01 µM (active)
GI50 [6]: 0.0126 µM (active)
GI50 [55]: < 0.011 µM (active)
GI50 [7]: 0.0184 µM (active)
GI50 [8]: 0.0284 µM (active)
GI50 [9]: 0.0313 µM (active)
GI50 [10]: 0.0209 µM (active)
GI50 [56]: 0.01 µM (active)
GI50 [11]: < 0.0126 µM (active)
GI50 [12]: 0.0619 µM (active)
GI50 [13]: 0.0172 µM (active)
GI50 [14]: 0.00329 µM (active)
GI50 [15]: 0.0162 µM (active)
GI50 [16]: 0.01 µM (active)
GI50 [17]: < 0.0143 µM (active)
GI50 [18]: 0.027 µM (active)
GI50 [19]: 0.0156 µM (active)
GI50 [20]: 0.08 µM (active)
GI50 [21]: 0.022 µM (active)
GI50 [22]: 0.0246 µM (active)
GI50 [23]: 0.01 µM (active)
GI50 [57]: < 0.0182 µM (active)
GI50 [58]: 0.01 µM (active)
GI50 [25]: 0.0115 µM (active)
GI50 [26]: 0.0181 µM (active)
GI50 [27]: 0.0129 µM
GI50 [28]: 0.01 µM (active)
GI50 [29]: 0.013 µM (active)
GI50 [30]: < 0.018 µM (active)
GI50 [31]: 0.839 µM (active)
GI50 [33]: 0.0165 µM (active)
GI50 [34]: 0.0275 µM (active)
GI50 [36]: 0.01 µM (active)
GI50 [37]: 0.0193 µM (active)
GI50 [38]: 0.0246 µM (active)
GI50 [39]: < 0.0112 µM (active)
GI50 [40]: 0.0183 µM (active)
GI50 [61]: 0.0138 µM (active)
GI50 [62]: 0.0171 µM (active)
GI50 [41]: 0.0185 µM (active)
GI50 [42]: 0.0236 µM (active)
GI50 [43]: 0.0773 µM (active)
GI50 [44]: 0.0168 µM (active)
GI50 [45]: 0.0206 µM (active)
GI50 [46]: 0.0138 µM (active)
GI50 [47]: < 0.0117 µM (active)
GI50 [48]: 0.0197 µM (active)
GI50 [49]: 0.00989 µM (active)
GI50 [59]: 0.0156 µM (active)
GI50 [50]: 0.01 µM (active)
GI50 [51]: 0.0156 µM (active)
GI50 [52]: 0.0251 µM (active)
GI50 [53]: 0.0243 µM (active)
GI50 [54]: < 0.0126 µM (active)
GI50 [60]: 0.022 µM (active)

Reference: ChEMBL document CHEMBL1201862, “PubChem BioAssay data set” (2004)
